# Legend:
# Experiment in all cases: viability relative to DMSO control (fraction); higher = less drug effect (more viable cells)
# Settings in all cases: 48 h
# [1] = tested on: primary AML patient cells (S060)
# How it was run: (§1)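 In 384-well plates with compounds pre-plated at five concentrations (one well per concentration), primary mononuclear tumour cells were plated at 4 × 10^4 cells per well. The cells came from blood or bone marrow by Ficoll isolation or from processed lymph node, and were used fresh or cryopreserved. Culture ran for 48 h at 37 °C and 5% CO2 in RPMI-1640 containing penicillin/streptomycin, L-glutamine and human serum. Viability was read as CellTiter-Glo luminescence, normalised to the median of 16 inner DMSO wells.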
# [2] = tested on: primary AML patient cells (S017)
# How it was run: as §1
# [3] = tested on: primary T-PLL patient cells (S008)
# How it was run: as §1
# [4] = tested on: primary AML patient cells (S009)
# How it was run: as §1
# [5] = tested on: primary AML patient cells (S089)
# How it was run: as §1
# [6] = tested on: primary AML patient cells (S037)
# How it was run: as §1
# [7] = tested on: primary AML patient cells (S091)
# How it was run: as §1
# [8] = tested on: primary AML patient cells (S072)
# How it was run: as §1
# [9] = tested on: primary BL patient cells (S005)
# How it was run: as §1
# [10] = tested on: primary AML patient cells (S025)
# How it was run: as §1
# [11] = tested on: primary MCL patient cells (S068)
# How it was run: as §1
# [12] = tested on: primary CLL patient cells (S043)
# How it was run: as §1
# [13] = tested on: primary AML patient cells (S002)
# How it was run: as §1
# [14] = tested on: primary B-PLL patient cells (S016)
# How it was run: as §1
# [15] = tested on: primary MCL patient cells (S053)
# How it was run: as §1
# [16] = tested on: primary AML patient cells (S021)
# How it was run: as §1
# [17] = tested on: primary AML patient cells (S071)
# How it was run: as §1
# [18] = tested on: primary DLBCL patient cells (S082)
# How it was run: as §1
# [19] = tested on: primary AML patient cells (S081)
# How it was run: as §1
smiles,measurement,setting,value
CCc1cnn2c(NCc3ccc[n+]([O-])c3)cc(N3CCCC[C@H]3CCO)nc12 [Dinaciclib],viability,[1]; 0.0016 µM,1.12
same,viability,[1]; 0.008 µM,0.0838
same,viability,[1]; 0.04 µM,0.0221
same,viability,[1]; 0.2 µM,0.0219
same,viability,[1]; 1 µM,0.0206
same,viability,[2]; 0.0016 µM,0.994
same,viability,[2]; 0.008 µM,0.401
same,viability,[2]; 0.04 µM,0.0509
same,viability,[2]; 0.2 µM,0.0474
same,viability,[2]; 1 µM,0.0503
same,viability,[3]; 0.0016 µM,0.971
same,viability,[3]; 0.008 µM,0.736
same,viability,[3]; 0.04 µM,0.127
same,viability,[3]; 0.2 µM,0.128
same,viability,[3]; 1 µM,0.143
same,viability,[4]; 0.0016 µM,1.06
same,viability,[4]; 0.008 µM,0.189
same,viability,[4]; 0.04 µM,0.0815
same,viability,[4]; 0.2 µM,0.0774
same,viability,[4]; 1 µM,0.0863
same,viability,[5]; 0.0016 µM,0.929
same,viability,[5]; 0.008 µM,0.0524
same,viability,[5]; 0.04 µM,0.0434
same,viability,[5]; 0.2 µM,0.0447
same,viability,[5]; 1 µM,0.0498
same,viability,[6]; 0.0016 µM,1.04
same,viability,[6]; 0.008 µM,0.903
same,viability,[6]; 0.04 µM,0.39
same,viability,[6]; 0.2 µM,0.38
same,viability,[6]; 1 µM,0.374
same,viability,[7]; 0.0016 µM,1.07
same,viability,[7]; 0.008 µM,0.171
same,viability,[7]; 0.04 µM,0.0777
same,viability,[7]; 0.2 µM,0.076
same,viability,[7]; 1 µM,0.0799
same,viability,[8]; 0.0016 µM,0.979
same,viability,[8]; 0.008 µM,0.169
same,viability,[8]; 0.04 µM,0.0691
same,viability,[8]; 0.2 µM,0.0617
same,viability,[8]; 1 µM,0.065
same,viability,[9]; 0.0016 µM,0.866
same,viability,[9]; 0.008 µM,0.792
same,viability,[9]; 0.04 µM,0.848
same,viability,[9]; 0.2 µM,0.867
same,viability,[9]; 1 µM,1.01
same,viability,[10]; 0.0016 µM,0.976
same,viability,[10]; 0.008 µM,0.286
same,viability,[10]; 0.04 µM,0.063
same,viability,[10]; 0.2 µM,0.0602
same,viability,[10]; 1 µM,0.0589
same,viability,[11]; 0.0016 µM,0.678
same,viability,[11]; 0.008 µM,0.0624
same,viability,[11]; 0.04 µM,0.0361
same,viability,[11]; 0.2 µM,0.0363
same,viability,[11]; 1 µM,0.0424
same,viability,[12]; 0.0016 µM,1.08
same,viability,[12]; 0.008 µM,0.0742
same,viability,[12]; 0.04 µM,0.0345
same,viability,[12]; 0.2 µM,0.0401
same,viability,[12]; 1 µM,0.0459
same,viability,[13]; 0.0016 µM,1.17
same,viability,[13]; 0.008 µM,0.272
same,viability,[13]; 0.04 µM,0.277
same,viability,[13]; 0.2 µM,0.265
same,viability,[13]; 1 µM,0.274
same,viability,[14]; 0.0016 µM,1.07
same,viability,[14]; 0.008 µM,0.047
same,viability,[14]; 0.04 µM,0.0409
same,viability,[14]; 0.2 µM,0.0324
same,viability,[14]; 1 µM,0.0324
same,viability,[15]; 0.0016 µM,0.881
same,viability,[15]; 0.008 µM,0.534
same,viability,[15]; 0.04 µM,0.755
same,viability,[15]; 0.2 µM,0.9
same,viability,[15]; 1 µM,1.08
same,viability,[16]; 0.0016 µM,1.38
same,viability,[16]; 0.008 µM,0.424
same,viability,[16]; 0.04 µM,0.161
same,viability,[16]; 0.2 µM,0.151
same,viability,[16]; 1 µM,0.139
same,viability,[17]; 0.0016 µM,0.966
same,viability,[17]; 0.008 µM,0.105
same,viability,[17]; 0.04 µM,0.107
same,viability,[17]; 0.2 µM,0.0985
same,viability,[17]; 1 µM,0.0952
same,viability,[18]; 0.0016 µM,0.98
same,viability,[18]; 0.008 µM,0.102
same,viability,[18]; 0.04 µM,0.0294
same,viability,[18]; 0.2 µM,0.0307
same,viability,[18]; 1 µM,0.0332
same,viability,[19]; 0.0016 µM,1.02
same,viability,[19]; 0.008 µM,0.0549
same,viability,[19]; 0.04 µM,0.0232
same,viability,[19]; 0.2 µM,0.0223
same,viability,[19]; 1 µM,0.0211

# From the supplement of paper PMC10733146
